Laboratory results as given in ChEMBL document CHEMBL3091360, “Homosecoiridoid alkaloids with amino acid units from the flower buds of Lonicera japonica” (J Nat Prod, 2013).
Active and inactive are the calls of the source. The calls are words filed in the database; no cut-off is given here.

Assays:
[1] = tested on: Human immunodeficiency virus 1; experiment: Antiviral activity against HIV1 infected in human 293T cells expressing VSV-G assessed as inhibition of viral p24 production at 10 uM after 48 hrs by ELISA; type: functional, organism-based
HCT-8 = experiment: Cytotoxicity against human HCT8 cells at 10 uM after 96 hrs by MTT assay; type: functional, cell-based
Influenza A virus H3N2 = experiment: microbe, parasite or virus in culture; details: Hanfang/359/95
KETR3 = experiment: Cytotoxicity against human Ketr3 cells at 10 uM after 96 hrs by MTT assay; type: functional, cell-based
[2] = Antiinflammatory activity in rat polymorphonuclear leukocytes assessed as inhibition of PAF-induced release of glucuronidase at 10 uM; type: functional
BGC-823 = experiment: Cytotoxicity against human BGC823 cells at 10 uM after 96 hrs by MTT assay; type: functional, cell-based
MCF7 = experiment: Cytotoxicity against human MCF7 cells at 10 uM after 96 hrs by MTT assay; type: functional, cell-based
Bel-7402 = experiment: Cytotoxicity against human Bel7402 cells at 10 uM after 96 hrs by MTT assay; type: functional, cell-based
A549 = experiment: Cytotoxicity against human A549 cells at 10 uM after 96 hrs by MTT assay; type: functional, cell-based
Coxsackievirus B3 = experiment: Antiviral activity against Coxsackie virus B3 assessed as inhibition of viral replication; type: functional, organism-based; details: Enterovirus B

Structure (SMILES)	inhibition [1]	Activity (HCT-8)	IC50 (Influenza A virus H3N2) [µM]	Activity (KETR3)	inhibition at 10 µM [2] [%]	Activity (BGC-823)	Activity (MCF7)	Activity (Bel-7402)	Activity (A549)	IC50 (Coxsackievirus B3) [µM]
C=C[C@H]1[C@H](O[C@@H]2O[C@H](CO)[C@@H](O)[C@H](O)[C@H]2O)OC=C(C(=O)O)[C@H]1/C=C/c1cc(C(=O)O)c[n+]([C@H](Cc2ccccc2)C(=O)[O-])c1	inactive	inactive	8.2	inactive	< 30	inactive	inactive	inactive	inactive	
C=C[C@H]1[C@H](O[C@@H]2O[C@H](CO)[C@@H](O)[C@H](O)[C@H]2O)OC=C(C(=O)O)[C@H]1/C=C/c1ccc[n+]([C@H](Cc2ccccc2)C(=O)[O-])c1	inactive	inactive	6.8	inactive	53.8	inactive	inactive	inactive	inactive	12.3
O=C(/C=C/c1ccc(O)c(O)c1)O[C@@H]1C[C@](O)(C(=O)O)C[C@@H](OC(=O)/C=C/c2ccc(O)c(O)c2)[C@H]1O	inactive	inactive	4.9	inactive	< 30	inactive	inactive	inactive	inactive	
O=C(/C=C/c1ccc(O)c(O)c1)O[C@@H]1[C@H](O)C[C@@](O)(C(=O)O)C[C@H]1OC(=O)/C=C/c1ccc(O)c(O)c1	inactive	inactive	10.2	inactive	< 30	inactive	inactive	inactive	inactive	
C=C[C@H]1[C@H](O[C@@H]2O[C@H](CO)[C@@H](O)[C@H](O)[C@H]2O)OC=C(C(=O)O)[C@H]1/C=C/c1ccc[n+]([C@@H](C)C(=O)[O-])c1	inactive	inactive	11.6	inactive	63.2	inactive	inactive	inactive	inactive	
Cc1cc(CCCOc2c(C)cc(-c3noc(C(F)(F)F)n3)cc2C)on1 [PLECONARIL]										0.3
